From patent US8507445B2, “Compositions and methods of use of targeting peptides for diagnosis and therapy of human cancer” (Board of Regents, The University of Texas System, priority 2002, dated 2013)
Each block holds one sequence with its values, some of them ahead of it.

Assays:
[1] = target: T1, HSP90α (Homo sapiens, UniProt P07900); assay: Receptor purification on biotinylated peptide beads; assay type: binding; settings: MALDI analysis of excised bands
T1 construct: from tissue; host or cells: homogenate pellet of DU145 xenograft tumor grown in nude mice
Description: The prostate homing receptor for the B2 clone ([…] SEQ ID NO:83) was identified. Nude mice bearing DU145 xenografts were prepared and tissue samples from tumor, kidney and liver were removed. The tissue samples were immediately washed with PBS and three parts of homogenization buffer (PBS, 250 mM sucrose, 1 mM EDTA, protease inhibitors) was added to one part of tissue sample (about 4 ml). The tissue with homogenized with an electric grinder, then further homogenized with a dounce homogenizer. After sonication for 1 min on ice, the homogenate was centrifuged at 8000×g for 5 min. The supernatant was removed and the pellet was analyzed for receptor content.
The […] (SEQ ID NO:83) peptide was biotinylated and coupled to NeutrAvidin beads (Molecular Probes, Eugene, Oreg.) using standard methods. About 500 μg of biotinylated peptide was incubated with 1 ml of NeutrAvidin beads in binding buffer (0.5 M NaCl in PBS) overnight at 4° C. in a 2 ml column. The column was agitated using a rotator. Uncoupled peptides were removed and the beads washed three times with binding buffer and protease inhibitors. […]
The beads were washed four times with wash buffer (0.1% Triton X-100 in PBS with protease inhibitors) and the bound material eluted with 8 M guanidine HCl. Eluted proteins were analyzed on a 4-20% SDS-PAGE denaturing gel. […]

[2] = test system: DU145 tumors; assay: Competition of phage tumor localization by synthetic peptide; assay type: in vivo, nude mice; settings: 300 μg synthetic peptide co-injected with phage
Description: Competition studies with the […] (SEQ ID NO:83) peptide were performed to determine whether it could inhibit localization of phage bearing the same targeting sequence to DU145 tumors. Nude mice bearing the prostate tumor xenograft were simultaneously injected with 300 μg of synthetic […] (SEQ ID NO:83) peptide and 10^9 phage bearing the same targeting peptide sequence. A control tumor-bearing mouse was co-injected with fd insertless phage plus synthetic peptide. After 24 hours of circulation, tumor tissue samples were removed, washed, fixed, sectioned and stained as disclosed above. Co-administration of synthetic peptide with the same targeting sequence inhibited the ability of […] (SEQ ID NO:83)-phage to localize to prostate carcinoma tissue (not shown). No staining of prostate carcinoma with control fd-tet phage was observed (not shown)

[3] = test system: antibodies isolated from the ascites of an ovarian cancer patient; assay: Competition of ascites antibody binding to immobilized GST fusion protein; design: species or system human
Description: Inhibition studies were performed in a similar manner as the binding assays described above with the exception that either GST fusion protein or synthetic peptide corresponding to the phage clone were added to the experiment. Where the peptide is mediating the interaction with the immunoglobulins then an inhibition of phage binding should be observed in a dose dependent manner versus the synthetic peptide. GST alone and a control peptide containing unrelated amino acids were tested at identical concentrations.
Peptide sequences of interest were expressed as GST fusion proteins (described above) and used to screen banked ascites and serum to determine the role of the humoral response against these markers. The purified GST-fusion proteins were used to coat a 96-well plate at 100 ng/well at room temperature (RT) or at 4° C. overnight. Following coating, the wells were emptied, rinsed, and non-specific sites were blocked with 200 μl 3% BSA/PBS at RT for 1-2 hours. Cancer patient ascites and/or sera were applied to each coated and blocked well at 1:100 dilution and then incubated at RT for 1 hour. […] Signals were detected in the presence of p-nitrophenyl phosphate by measuring OD405 at specific intervals to follow the course of color development. […]

[4] = test system: IgGs isolated from the ascites of ovarian cancer patients; assay: Biopanning of CX7C phage library on IgGs from ovarian cancer ascites; assay type: binding, human
Description: To identify peptide epitopes specific for the anti-tumor immune response in ovarian cancer, a two-step screening procedure was followed (FIG. 34). The peptide library was initially pre-cleared on IVIg (intravenous immunoglobulins) to remove non-specific peptides. The pre-cleared peptide phage library was then incubated with IgGs isolated from the ascites of ovarian cancer patients. Phage bound to the ovarian cancer IgGs were recovered, amplified, and precipitated for subsequent rounds of biopanning. Following enrichment of a phage population that bound to ovarian cancer patient IgGs, individual phage clones were picked for sequence analysis to evaluate enrichment of the most consistently binding peptide sequences. Phage display biopanning was performed as described above.
Once the selection rounds were completed as determined by enrichment of phage capable of binding cancer patient IgGs over control at least 3 fold, sequencing and evaluation of the DNA phage insert were undertaken. To sequence the FUSE5 ssDNA directly, phage ssDNA was prepared using the StrataClean™ resin (Stratagene). StrataClean bead slurry was placed in a microcentrifuge tube containing phage. The mixture was vortexed strongly for 30 seconds and then incubated at room temperature for one minute. The tubes were centrifuged at 2,000×g for 1 minute. […]

[5] = test system: MDA-MB-435 breast carcinoma; assay: Phage localization, separate study; settings: in vivo
[6] = test system: DU145 xenografts; assay: Phage localization by anti-phage staining of tissues; assay type: in vivo, nude mice; settings: 24 hour circulation
Description: To determine the specificity of the prostate tumor targeting peptides, 10^9 phage carrying the targeting peptide sequences […] (SEQ ID NO:83) and […] (SEQ ID NO:84) were injected into nude mice bearing DU145 xenografts. After 24 hour circulation, tissue samples were obtained from tumor and control organs (kidney, brain, lung and spleen). Tissue samples were washed immediately in DMAM and fixed in 10% formalin for 48 hours at room temperature. Thin sections were stained for phage using anti-phage antibody (1:500 dilution) and detected using the DAKO LSAB+ system. […] This may be due to the tendency of spleen tissue to trap phage and other foreign particles in general as part of the reticuloendothelial system.

- receptor identified [1]: HSP90α
Sequence: YRCTLNSPFFWEDMTHECHA [listing 1 of 2 here]
- inhibition of phage localization to prostate carcinoma [2]: inhibited

Sequence: CVPELGHEC
- inhibition of antibody binding to immobilized GST-CVPELGHEC [3]: competitively inhibited in a dose-dependent fashion
- share of the phage clones sequenced [4]: 86%

Sequence: YRCTLNSPFFWEDMTHECHA [listing 2 of 2 here]
- phage localization [5]: no apparent localization
- anti-phage staining of control kidney, brain or lung [6]: No staining was observed
- anti-phage staining of normal spleen [6]: low level of anti-phage staining
- anti-phage staining of tumor [6]: very heavy staining
